Reference: US20230183239A1, “ECTONUCLEOTIDE PYROPHOSPHATASE-PHOSPHODIESTERASE 1 (ENPP-1) INHIBITORS AND USES THEREOF” (AbbVie Inc., priority 2017, published 2023)

Columns and labels:
Assay type in all cases: biochemical
ENPP1 [1] = target: T1, ENPP1 (Homo sapiens, UniProt P22413); assay: Substrate selectivity ratio, inhibition of cGAMP hydrolysis versus ATP hydrolysis; conditions: ratio Ki AMP-pNP / Ki cGAMP
T1 sequence (P22413 1-925): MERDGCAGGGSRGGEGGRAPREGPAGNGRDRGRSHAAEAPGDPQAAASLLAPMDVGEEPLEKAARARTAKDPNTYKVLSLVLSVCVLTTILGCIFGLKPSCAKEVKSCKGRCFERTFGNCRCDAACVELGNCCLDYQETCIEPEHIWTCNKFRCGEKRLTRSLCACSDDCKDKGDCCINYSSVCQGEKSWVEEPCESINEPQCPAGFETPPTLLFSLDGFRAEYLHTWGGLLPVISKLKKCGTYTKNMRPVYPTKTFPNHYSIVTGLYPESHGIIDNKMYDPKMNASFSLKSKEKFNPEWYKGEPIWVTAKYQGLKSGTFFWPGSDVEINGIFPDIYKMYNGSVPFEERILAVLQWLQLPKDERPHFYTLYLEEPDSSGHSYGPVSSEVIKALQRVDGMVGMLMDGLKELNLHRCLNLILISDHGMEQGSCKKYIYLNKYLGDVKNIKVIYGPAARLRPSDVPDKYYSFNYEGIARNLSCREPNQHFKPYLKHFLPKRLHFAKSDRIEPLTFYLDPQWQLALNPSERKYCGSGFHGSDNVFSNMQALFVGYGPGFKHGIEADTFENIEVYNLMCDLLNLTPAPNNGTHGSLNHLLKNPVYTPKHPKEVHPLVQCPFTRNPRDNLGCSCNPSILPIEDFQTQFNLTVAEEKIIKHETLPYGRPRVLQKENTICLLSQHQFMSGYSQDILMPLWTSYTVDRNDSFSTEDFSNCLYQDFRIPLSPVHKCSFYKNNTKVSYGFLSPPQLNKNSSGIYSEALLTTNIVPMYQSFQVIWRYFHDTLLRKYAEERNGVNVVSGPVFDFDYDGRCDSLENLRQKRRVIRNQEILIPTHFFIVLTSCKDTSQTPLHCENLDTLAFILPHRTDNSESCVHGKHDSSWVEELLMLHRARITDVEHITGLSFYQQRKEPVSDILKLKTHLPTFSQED
Protocol: The selectivity ratios for inhibition of cGAMP hydrolysis versus ATP hydrolysis were then calculated as follows: […]

ENPP1 [2] = target: T1, ENPP1; assay: ENPP1 enzyme assay with AMP-pNP substrate (hydrolysis of ATP analog); conditions: AMP-pNP substrate (ATP analog); Ki from IC50 by Cheng-Prusoff; read-out: ENPP1 Inhibition _AMP-pNP: Ki
How it was run: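 Reactions ran 20 min at 37 °C, pH 8.5 Tris buffer with NaCl, CaCl2, ZnCl2, using 300 µM AMP-pNP and 60 ng/well recombinant human ENPP1; inhibitor range 10 µM–30 pM, duplicates.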

ENPP1 [3] = target: T1, ENPP1; assay: Indirect quantitation of 2',3'-cGAMP hydrolysis (AMP-Glo Assay kit); conditions: cGAMP substrate; Ki from IC50 by Cheng-Prusoff; read-out: ENPP1 Inhibition -cGAMP: Ki

| Structure (SMILES) | Substrate Selectivity: Ki_AMP-pNP/Ki_cGAMP (ENPP1 [1]) | Ki (ENPP1 [2]) [nM] | Ki (ENPP1 [3]) [nM] |
| --- | --- | --- | --- |
| COc1ccc2c(Oc3ccc(NS(N)(=O)=O)c(F)c3)ccnc2c1 [Example 297, N-(2-fluoro-4-((7-methoxyquinolin-4-yl)oxy)phenyl)sulfamide] | 19.5 | 100 to 1000 | < 100 |
| COc1ccc2ncc(C#N)c(-c3ccc4c(c3)CN(S(N)(=O)=O)CC4)c2c1 [Example 237, 7-(3-cyano-6-methoxyquinolin-4-yl)-3,4-dihydroisoquinoline-2(1H)-sulfonamide] | >371 | > 1000 | < 100 |
| Cn1cnc2nccc(-c3ccc4c(c3)CN(S(N)(=O)=O)CC4)c21 [Example 193, 7-(1-methyl-1H-imidazo[4,5-b]pyridin-7-yl)-3,4-dihydroisoquinoline-2(1H)-sulfonamide] | > 38.6 | > 1000 | < 100 |
| COc1cc2c(NCc3ccc(S(N)(=O)=O)cc3)ncnc2cn1 [Example 247, 4-(((6-methoxypyrido[3,4-d]pyrimidin-4-yl)amino)methyl)benzenesulfonamide] | 67.3 | > 1000 | 100 to 1000 |
| NS(=O)(=O)NCc1ccc(-c2ccnc3cc(F)ccc23)cc1 [Example 296, N-(4-(7-fluoroquinolin-4-yl)benzyl)sulfamide] | > 40.3 | > 1000 | < 100 |
| COc1ccc2c(-c3ccc4c(c3)CN(S(N)(=O)=O)C4)ccnc2c1 [Example 402, 5-(7-methoxyquinolin-4-yl)isoindoline-2-sulfonamide] | 46 | 100 to 1000 | < 100 |

Results, then the molecule that gave them:

| Substrate Selectivity: Ki_AMP-pNP/Ki_cGAMP (ENPP1 [1]) | Ki (ENPP1 [2]) [nM] | Ki (ENPP1 [3]) [nM] | Structure (SMILES) |
| --- | --- | --- | --- |
| >50.7 | > 1000 | 100 to 1000 | COc1cc2ncnc(N3CCC(CCC(=O)O)CC3)c2cc1OC [Example 171, 3-(1-(6,7-dimethoxyquinazolin-4-yl)piperidin-4-yl)propanoic acid] |
| >12.4 | > 1000 | 100 to 1000 | COc1cc2ncnc(Oc3ccc(NS(N)(=O)=O)cc3)c2cc1OC [Example 273, N-(4-((6,7-dimethoxyquinazolin-4-yl)oxy)phenyl)sulfamide] |
| 8.9 | < 100 | < 100 | COc1cc2nccc(-c3ccc(CNS(N)(=O)=O)c(F)c3)c2cc1OC [Example 69, N-(4-(6,7-dimethoxyquinolin-4-yl) -2-fluorobenzyl)sulfamide] |
| > 14.6 | > 1000 | 100 to 1000 | COc1cc2ncnc(N3CCC(CCC(N)=O)CC3)c2cc1OC [Example 222, 3-(1-(6,7-dimethoxyquinazolin-4-yl)piperidin-4-yl)propanamide] |
| >43.2 | 100 to 1000 | < 100 | COc1cc2nccc(Oc3ccc(NS(=O)(=O)c4ccccc4)cc3)c2cc1OC [Example 86, N-(4-((6,7-dimethoxyquinolin-4-yl)oxy)phenyl)benzenesulfonamide] |
| >69.1 | > 1000 | < 100 | COc1cc2nccc(Nc3ccc(NS(N)(=O)=O)cc3)c2cc1OC [Example 134, N-(4-((6,7-dimethoxyquinolin-4-yl)amino)phenyl)sulfamide] |
| >31 | 100 to 1000 | < 100 | COc1cc2ncc(C#N)c(-c3ccc(CNS(N)(=O)=O)cc3)c2cc1F [Example 395, N-(4-(3-cyano-6-fluoro-7-methoxyquinolin-4-yl)benzyl)sulfamide] |
| > 11.9 | > 1000 | 100 to 1000 | COc1cc2nccc(NCc3ccc(NS(N)(=O)=O)cc3)c2cc1OC [Example 180, N-(4-(((6,7-dimethoxyquinolin-4-yl)amino)methyl)phenyl)sulfamide] |
